Active and inactive are the calls of the source. The rule behind the calls is not given here.
Experiments:
[1] = test system: HepG2; assay: Cytotoxicity against human HepG2 cells assessed as reduction in cell viability at 1.25 to 20 uM after 72 hrs by Hoechst 33342 staining based assay; type: functional; conditions: dose 1.25-20 µM
[2] = test system: PC-3; assay: Cytotoxicity against human PC-3 cells assessed as reduction in cell viability at 1.25 to 20 uM after 72 hrs by Hoechst 33342 staining based assay; type: functional; conditions: dose 1.25-20 µM
[3] = test system: Hep 3B2; assay: Cytotoxicity against human Hep3B cells assessed as reduction in cell viability at 1.25 to 20 uM after 72 hrs by Hoechst 33342 staining based assay; type: functional; conditions: dose 1.25-20 µM
[4] = test system: A549; assay: Cytotoxicity against human A549 cells assessed as reduction in cell viability at 1.25 to 20 uM after 72 hrs by Hoechst 33342 staining based assay; type: functional; conditions: dose 1.25-20 µM
[5] = test system: MCF7; assay: Cytotoxicity against human MCF7 cells assessed as reduction in cell viability at 1.25 to 20 uM after 72 hrs by Hoechst 33342 staining based assay; type: functional; conditions: dose 1.25-20 µM
[6] = test system: PC-3; assay: Induction of apoptosis in human PC-3 cells assessed as increase in P53 protein expression at 6 uM after 72 hrs by Western blot analysis; type: functional, cell-based
[7] = biological target: Cellular tumor antigen p53 (Homo sapiens) (UniProt P04637); assay: Activation of P53 in human MCF7 cells assessed as increase in p21 protein expression at ser15 residues at 6 uM after 72 hrs by Western blot analysis; type: cell-based; conditions: filed as activator
Chain of Cellular tumor antigen p53 (Homo sapiens) (P04637 whole entry, looked up): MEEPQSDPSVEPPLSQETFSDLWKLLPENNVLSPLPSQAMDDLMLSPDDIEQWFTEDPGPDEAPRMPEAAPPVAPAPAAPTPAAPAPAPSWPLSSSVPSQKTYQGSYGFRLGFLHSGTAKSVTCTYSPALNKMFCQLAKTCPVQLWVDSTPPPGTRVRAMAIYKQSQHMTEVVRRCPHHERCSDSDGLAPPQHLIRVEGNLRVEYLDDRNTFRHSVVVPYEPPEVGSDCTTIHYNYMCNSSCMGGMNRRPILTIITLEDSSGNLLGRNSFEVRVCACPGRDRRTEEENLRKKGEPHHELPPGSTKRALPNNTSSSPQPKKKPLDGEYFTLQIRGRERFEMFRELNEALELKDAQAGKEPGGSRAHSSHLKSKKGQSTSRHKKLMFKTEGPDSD

[8] = test system: A549; assay: Induction of apoptosis in human A549 cells assessed as increase in P53 protein expression at 6 uM after 72 hrs by Western blot analysis; type: functional, cell-based
[9] = biological target: Cellular tumor antigen p53 (Homo sapiens) (UniProt P04637); assay: Activation of P53 in human HepG2 cells assessed as increase in p21 protein expression at ser15 residues at 6 uM after 72 hrs by Western blot analysis; type: cell-based; conditions: filed as activator
[10] = test system: Cellular tumor antigen p53 (Homo sapiens), P04637 [UNDEFINED MUTATION]; assay: Activation of P53 mutant in human PC-3 cells assessed as increase in P53 phosphorylation at ser15 residues at 6 uM after 72 hrs by Western blot analysis; type: cell-based
Chain of Cellular tumor antigen p53 (Homo sapiens), P04637 [UNDEFINED MUTATION] (P04637 whole entry, looked up, change not shown): as the sequence (P04637 whole entry, looked up) above

[11] = test system: HepG2; assay: Induction of apoptosis in human HepG2 cells assessed as increase in P53 protein expression at 6 uM after 72 hrs by Western blot analysis; type: functional, cell-based
[12] = test system: Cellular tumor antigen p53 (Homo sapiens), P04637 [UNDEFINED MUTATION]; assay: Activation of P53 mutant in human Hep3B cells assessed as increase in P53 phosphorylation at ser15 residues at 6 uM after 72 hrs by Western blot analysis; type: cell-based
[13] = Activation of P53 in human HepG2 cells assessed as increase in P53 phosphorylation at ser15 residues at 6 uM after 72 hrs by Western blot analysis; conditions: filed as activator
[14] = test system: HepG2; assay: Induction of apoptosis in human HepG2 cells assessed as increase in cleaved PARP level at 6 uM after 72 hrs by Western blot analysis; type: functional, cell-based
[15] = test system: Hep 3B2; assay: Induction of apoptosis in human Hep3B cells assessed as increase in cleaved PARP level at 6 uM after 72 hrs by Western blot analysis; type: functional, cell-based
[16] = biological target: Cellular tumor antigen p53 (Homo sapiens) (UniProt P04637); assay: Activation of P53 in human MCF7 cells assessed as increase in P53 phosphorylation at ser15 residues at 6 uM after 72 hrs by Western blot analysis; type: cell-based; conditions: filed as activator
[17] = test system: Hep 3B2; assay: Induction of apoptosis in human Hep3B cells assessed as increase in P53 protein expression at 6 uM after 72 hrs by Western blot analysis; type: functional, cell-based
[18] = test system: MCF7; assay: Induction of apoptosis in human MCF7 cells assessed as increase in cleaved PARP level at 6 uM after 72 hrs by Western blot analysis; type: functional, cell-based
[19] = test system: A549; assay: Induction of apoptosis in human A549 cells assessed as increase in cleaved PARP level at 6 uM after 72 hrs by Western blot analysis; type: functional, cell-based
[20] = test system: Cellular tumor antigen p53 (Homo sapiens), P04637 [UNDEFINED MUTATION]; assay: Activation of P53 mutant in human PC-3 cells assessed as increase in p21 protein expression at ser15 residues at 6 uM after 72 hrs by Western blot analysis; type: cell-based; conditions: filed as activator
[21] = biological target: Cellular tumor antigen p53 (Homo sapiens) (UniProt P04637); assay: Activation of P53 in human A549 cells assessed as increase in p21 protein expression at ser15 residues at 6 uM after 72 hrs by Western blot analysis; type: cell-based; conditions: filed as activator
[22] = test system: MCF7; assay: Induction of apoptosis in human MCF7 cells assessed as increase in P53 protein expression at 6 uM after 72 hrs by Western blot analysis; type: functional, cell-based
[23] = biological target: Cellular tumor antigen p53 (Homo sapiens) (UniProt P04637); assay: Activation of P53 in human A549 cells assessed as increase in P53 phosphorylation at ser15 residues at 6 uM after 72 hrs by Western blot analysis; type: cell-based; conditions: filed as activator
[24] = test system: Cellular tumor antigen p53 (Homo sapiens), P04637 [UNDEFINED MUTATION]; assay: Activation of P53 mutant in human Hep3B cells assessed as increase in p21 protein expression at ser15 residues at 6 uM after 72 hrs by Western blot analysis; type: cell-based; conditions: filed as activator
[25] = test system: PC-3; assay: Induction of apoptosis in human PC-3 cells assessed as increase in cleaved PARP level at 6 uM after 72 hrs by Western blot analysis; type: functional, cell-based

Activity [7] | Activity [9] | Activity [10] | Activity [12] | Activity [13] | Activity [16] | Activity [20] | SMILES | Activity [1] | Activity [2] | Activity [3] | Activity [4] | Activity [5] | Activity [6] | Activity [8] | Activity [11] | Activity [14] | Activity [15] | Activity [17] | Activity [18] | Activity [19] | further results
– | – | – | – | – | – | – | COc1ccc(-c2cc3cc(CCO)cc(OC)c3o2)cc1 | inactive | inactive | inactive | inactive | inactive | – | – | – | – | – | – | – | – | –
Active | Active | inactive | inactive | Active | Active | Active | COc1cc2oc(-c3ccc(O)cc3)cc2cc1CCO | Active | Active | Active | Active | Active | inactive | Active | Active | Active | Active | inactive | Active | Active | Activity [21]: Active; Activity [22]: Active; Activity [23]: Active; Activity [24]: Active; Activity [25]: Active
Active | Active | inactive | inactive | Active | Active | Active | COc1cc(CCO)cc2c(C)c(-c3ccc(O)cc3)oc12 | Active | Active | Active | Active | Active | inactive | Active | Active | Active | Active | inactive | Active | Active | Activity [21]: Active; Activity [22]: Active; Activity [23]: Active; Activity [24]: Active; Activity [25]: Active
Active | Active | inactive | inactive | Active | Active | Active | COc1cc(CCO)cc2cc(-c3ccc(O)cc3)oc12 | Active | Active | Active | Active | Active | inactive | Active | Active | Active | Active | inactive | Active | Active | Activity [21]: Active; Activity [22]: Active; Activity [23]: Active; Activity [24]: Active; Activity [25]: Active
– | – | – | – | – | – | – | COc1ccc(-c2cc3cc(CCO)c(OC)cc3o2)cc1 | inactive | inactive | inactive | inactive | inactive | – | – | – | – | – | – | – | – | –
– | – | – | – | – | – | – | COc1ccc(-c2oc3cc(OC)c(CCO)cc3c2C)cc1 | inactive | inactive | inactive | inactive | inactive | – | – | – | – | – | – | – | – | –
– | – | – | – | – | – | – | COc1cc2oc(-c3ccc(O)cc3)c(C)c2cc1CCO | Active | Active | Active | Active | Active | – | – | – | – | – | – | – | – | –
– | – | – | – | – | – | – | COc1ccc(-c2oc3c(OC)cc(CCO)cc3c2C)cc1 | inactive | inactive | inactive | inactive | inactive | – | – | – | – | – | – | – | – | –
